Data taken from patent US20170143716A1, “METHOD OF TREATING PROLIFERATIVE DISORDERS AND OTHER PATHOLOGICAL CONDITIONS MEDIATED BY BCR-ABL, C-KIT, DDR1, DDR2 OR PDGF-R KINASE ACTIVITY” (Novartis AG, priority 2009, published 2017).

Experiments:
[1] = Study in CML patients obtaining 400 mg nilotinib twice daily (trough concentrations C0, C12); format: in vivo, human; conditions: 21 CML patients, 400 mg twice daily
Description: 21 Patients were treated with 400 mg nilotinib twice daily. Blood samples were collected prior to morning dose (C0) and prior to evening dose (C12). […] With other words, the trough concentration of nilotinib in the morning was 60 to 80% higher than that observed in the evening.

[2] = PK study in healthy volunteers (4-way crossover, morning vs evening dosing); format: in vivo, human
Description: The increased exposure with QHS was confirmed in a study investigating nilotinib pharmacokinetics in healthy volunteers (HV) comparing cohorts receiving 600 mg morning dose or 600 mg morning dose QHS, respectively. In a single center, 4-way crossover study (n=16-24), HV group A was administered 300 mg nilotinib (in the form of nilotinib monohydrochloride monohydrate) in the morning, 2 hours after breakfast; HV group B was administered 300 mg nilotinib (in the form of nilotinib monohydrochloride monohydrate) in the evening, 2 hours after diner; HV group C was administered 600 mg nilotinib (in the form of nilotinib monohydrochloride monohydrate) in the evening, 2 hours after diner; and HV group D was administered 600 mg nilotinib (in the form of nilotinib monohydrochloride monohydrate) in the evening, 4 hours after diner.
The nilotinib PK was compared when administered in the evening versus administration in the morning (B vs. A) and the potential residual food effect on nilotinib absorption was assessed (D vs. C).

[3] = human, in vivo, po, 400 mg
Description: The effect of food on the pharmacokinetic parameters of 400 mg oral dose of nilotinib in the formulation mentioned above was studied in human subjects. […] In view of these findings, it is recommended that nilotinib shall not be taken with a meal in order to minimize the effect of food on nilotinib bioavailability. A statement in this regard is, for instance, included in sections 4.2, 4.4 and 4.5 of the SPC (Summary of Product Characteristics) of the marketing authorization for Tasigna™ issued by the European Medicines Agency (EMEA).

[4] = 300 mg evening vs 300 mg morning
[5] = 600 mg evening 4 hours after diner vs 2 hours after diner
[6] = group A: 300 mg in the morning, 2 hours after breakfast, N = 20
[7] = group B: 300 mg in the evening, 2 hours after diner, N = 18
[8] = group C: 600 mg in the evening, 2 hours after diner, N = 22
[9] = group D: 600 mg in the evening, 4 hours after diner, N = 22

## Cc1cn(-c2cc(NC(=O)c3ccc(C)c(Nc4nccc(-c5cccnc5)n4)c3)cc(C(F)(F)F)c2)cn1 [nilotinib, 4-methyl-3-[[4-(3-pyridinyl)-2-pyrimidinyl]amino]-N-[5-(4-methyl-1H-imidazol-1-yl)-3-(trifluoromethyl)phenyl] benzamide]
[1]
  ratio C0/C12 (concentration prior to morning dose / prior to evening dose): 1.7
[2]; [4]
  AUC0-12, Geometric Mean Ratio (90% Cls) B vs A: 1.21
  AUC0-24, Geometric Mean Ratio (90% Cls) B vs A: 1.21
  AUC0-inf, Geometric Mean Ratio (90% Cls) B vs A: 1.09
  AUC0-tlast, Geometric Mean Ratio (90% Cls) B vs A: 1.14
  Cmax, Geometric Mean Ratio (90% Cls) B vs A: 1.14
  tmax, Geometric Mean Ratio (90% Cls) B vs A: 0.49
[2]; [5]
  AUC0-12, Geometric Mean Ratio (90% Cls) D vs C: 0.93
  AUC0-24, Geometric Mean Ratio (90% Cls) D vs C: 0.93
  AUC0-inf, Geometric Mean Ratio (90% Cls) D vs C: 0.94
  AUC0-tlast, Geometric Mean Ratio (90% Cls) D vs C: 0.94
  Cmax, Geometric Mean Ratio (90% Cls) D vs C: 0.92
  tmax, Geometric Mean Ratio (90% Cls) D vs C: −0.49
[2]; [6]
  AUC0-12: 4577 ng·h/mL
  AUC0-24: 7781 ng·h/mL
  AUC0-inf: 14920 ng·h/mL
  AUC0-tlast: 13650 ng·h/mL
  Cmax: 577 ng/mL
  t1/2: 20.3 h
  tmax: 4.0 h
[2]; [7]
  AUC0-12: 5537 ng·h/mL
  AUC0-24: 9435 ng·h/mL
  AUC0-inf: 16272 ng·h/mL
  AUC0-tlast: 15556 ng·h/mL
  Cmax: 655 ng/mL
  t1/2: 14.5 h
  tmax: 4.0 h
[2]; [8]
  AUC0-12: 7124 ng·h/mL
  AUC0-24: 11857 ng·h/mL
  AUC0-inf: 23216 ng·h/mL
  AUC0-tlast: 20819 ng·h/mL
  Cmax: 854 ng/mL
  t1/2: 20.5 h
  tmax: 4.0 h
[2]; [9]
  AUC0-12: 6650 ng·h/mL
  AUC0-24: 111064 ng·h/mL
  AUC0-inf: 21937 ng·h/mL
  AUC0-tlast: 19591 ng·h/mL
  Cmax: 782 ng/mL
  t1/2: 19.9 h
  tmax: 4.0 h
[2]; healthy volunteers, evening vs morning dose
  exposure higher following the evening dose than the morning dose: up to 20%
[3]
  increase in total exposure (AUC0-t) with food: 29%
  total exposure (AUC0-t) increase with food: 82%
